What was measured:
Assay in all cases: Test D pre-/postemergence plant response
Type in all cases: in vivo
[1] = tested on: giant foxtail (Setaria faberii)
Outline: (§1)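 Preemergence: seeds in loam/sand blend treated with test chemicals in non-phytotoxic solvent with surfactant; postemergence: plants at 2–18 cm (1- to 4-leaf stage) in peat-based medium sprayed likewise. Greenhouse 13 to 15 days, then visual rating vs controls, 0 (no effect) to 100 (complete control).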

[2] = tested on: pigweed (Amaranthus retroflexus)
Outline: as §1

[3] = tested on: winter wheat (Triticum aestivum)
Outline: as §1

[4] = tested on: yellow nutsedge (Cyperus esculentus)
Outline: as §1

[5] = tested on: Italian ryegrass (Lolium multiflorum)
Outline: as §1

[6] = tested on: blackgrass (Alopecurus myosuroides)
Outline: as §1

[7] = tested on: velvetleaf (Abutilon theophrasti)
Outline: as §1

[8] = tested on: ragweed (common ragweed, Ambrosia elatior)
Outline: as §1

corn (Zea mays) = tested on: corn (Zea mays)
Outline: as §1

[9] = tested on: lambsquarters (Chenopodium album)
Outline: as §1

[10] = tested on: johnsongrass (Sorghum halepense)
Outline: as §1

[11] = tested on: large (Lg) crabgrass (Digitaria sanguinalis)
Outline: as §1

[12] = tested on: galium (catchweed bedstraw, Galium aparine)
Outline: as §1

soybean (Glycine max) = tested on: soybean (Glycine max)
Outline: as §1

[13] = tested on: barnyardgrass (Echinochloa crus-galli)
Outline: as §1

[14] = tested on: morningglory (Ipomoea coccinea)
Outline: as §1

[15] = tested on: waterhemp (common waterhemp, Amaranthus rudis)
Outline: as §1

[16] = tested on: oilseed rape (Brassica napus)
Outline: as §1

[17] = Postemergence, 31 g ai/ha, scale 0 to 100 (0 no effect, 100 complete control)
[18] = Postemergence, 62 g ai/ha, scale 0 to 100, 0 no effect, 100 complete control
[19] = Postemergence, 125 g ai/ha, scale 0 to 100, 0 no effect, 100 complete control
[20] = Preemergence, 16 g ai/ha, scale 0 to 100 (0 no effect, 100 complete control)
[21] = Preemergence, 31 g ai/ha, scale 0 to 100 (0 no effect, 100 complete control)
[22] = Preemergence, 62 g ai/ha, scale 0 to 100 (0 no effect, 100 complete control)

N#Cc1cccc(Oc2ncc(Cl)cn2)c1-c1cc(C(F)F)on1 [Compound 180]
Plant response rating (scale 0 to 100), Foxtail, Giant ([1]; Postemergence, 16 g ai/ha): 60
Foxtail, Giant plant response rating [1, 17]: 50
Plant response rating, Foxtail, Giant [1, 18]: 30
Plant response rating, Foxtail, Giant [1, 19]: 45
Plant response rating (scale 0 to 100), Foxtail, Giant ([1]; Preemergence, 125 g ai/ha): 100
Plant response rating, Foxtail, Giant [1, 20]: 5
Plant response rating, Foxtail, Giant [1, 21]: 60
Plant response rating, Foxtail, Giant [1, 22]: 85
Plant response rating (scale 0 to 100), Pigweed ([2]; Postemergence, 16 g ai/ha): 70
Pigweed plant response rating [2, 17]: 75
Pigweed plant response rating [2, 18]: 75
Plant response rating, Pigweed [2, 19]: 98
Plant response rating (scale 0 to 100), Pigweed ([2]; Preemergence, 125 g ai/ha): 100
Plant response rating, Pigweed [2, 20]: 80
Plant response rating, Pigweed [2, 21]: 98
Plant response rating, Pigweed [2, 22]: 100
Plant response rating (scale 0 to 100), Wheat ([3]; Postemergence, 16 g ai/ha): 5
Wheat plant response rating [3, 17]: 5
Wheat plant response rating [3, 18]: 15
Plant response rating, Wheat [3, 19]: 30
Plant response rating (scale 0 to 100), Wheat ([3]; Preemergence, 125 g ai/ha): 30
Plant response rating, Wheat [3, 20]: 0
Plant response rating, Wheat [3, 21]: 0
Plant response rating, Wheat [3, 22]: 0
Plant response rating (scale 0 to 100), Nutsedge, Yellow ([4]; Postemergence, 16 g ai/ha): 0
Nutsedge, Yellow plant response rating [4, 17]: 0
Nutsedge, Yellow plant response rating [4, 18]: 10
Plant response rating, Nutsedge, Yellow [4, 19]: 15
Plant response rating (scale 0 to 100), Nutsedge, Yellow ([4]; Preemergence, 125 g ai/ha): 30
Plant response rating, Nutsedge, Yellow [4, 20]: 0
Plant response rating, Nutsedge, Yellow [4, 21]: 0
Plant response rating, Nutsedge, Yellow [4, 22]: 0
Plant response rating (scale 0 to 100), Ryegrass, Italian ([5]; Postemergence, 16 g ai/ha): 0
Ryegrass, Italian plant response rating [5, 17]: 0
Ryegrass, Italian plant response rating [5, 18]: 5
Plant response rating, Ryegrass, Italian [5, 19]: 20
Plant response rating (scale 0 to 100), Ryegrass, Italian ([5]; Preemergence, 125 g ai/ha): 65
Plant response rating, Ryegrass, Italian [5, 20]: 0
Plant response rating, Ryegrass, Italian [5, 21]: 0
Plant response rating, Ryegrass, Italian [5, 22]: 50
Plant response rating (scale 0 to 100), Blackgrass ([6]; Postemergence, 16 g ai/ha): 0
Blackgrass plant response rating [6, 17]: 0
Plant response rating, Blackgrass [6, 18]: 5
Plant response rating, Blackgrass [6, 19]: 5
Plant response rating (scale 0 to 100), Blackgrass ([6]; Preemergence, 125 g ai/ha): 70
Plant response rating, Blackgrass [6, 20]: 0
Plant response rating, Blackgrass [6, 21]: 0
Plant response rating, Blackgrass [6, 22]: 60
Plant response rating (scale 0 to 100), Velvetleaf ([7]; Postemergence, 16 g ai/ha): 45
Velvetleaf plant response rating [7, 17]: 40
Velvetleaf plant response rating [7, 18]: 35
Plant response rating, Velvetleaf [7, 19]: 55
Plant response rating (scale 0 to 100), Velvetleaf ([7]; Preemergence, 125 g ai/ha): 100
Plant response rating, Velvetleaf [7, 20]: 75
Plant response rating, Velvetleaf [7, 21]: 85
Plant response rating, Velvetleaf [7, 22]: 90
Plant response rating (scale 0 to 100), Ragweed ([8]; Postemergence, 16 g ai/ha): 30
Ragweed plant response rating [8, 17]: 40
Ragweed plant response rating [8, 18]: 35
Plant response rating, Ragweed [8, 19]: 65
Plant response rating (scale 0 to 100), Ragweed ([8]; Preemergence, 125 g ai/ha): 55
Plant response rating, Ragweed [8, 20]: 0
Plant response rating, Ragweed [8, 21]: 5
Plant response rating, Ragweed [8, 22]: 15
Plant response rating (scale 0 to 100), Corn (corn (Zea mays); Postemergence, 16 g ai/ha): 5
Corn plant response rating (corn (Zea mays); [17]): 5
Plant response rating, Corn (corn (Zea mays); [18]): 10
Plant response rating, Corn (corn (Zea mays); [19]): 15
Plant response rating (scale 0 to 100), Corn (corn (Zea mays); Preemergence, 125 g ai/ha): 30
Plant response rating, Corn (corn (Zea mays); [20]): 0
Plant response rating, Corn (corn (Zea mays); [21]): 0
Plant response rating, Corn (corn (Zea mays); [22]): 5
Plant response rating (scale 0 to 100), Lambsquarters ([9]; Postemergence, 16 g ai/ha): 70
Lambsquarters plant response rating [9, 17]: 80
Lambsquarters plant response rating [9, 18]: 98
Plant response rating, Lambsquarters [9, 19]: 98
Plant response rating (scale 0 to 100), Lambsquarters ([9]; Preemergence, 125 g ai/ha): 90
Plant response rating, Lambsquarters [9, 20]: 95
Plant response rating, Lambsquarters [9, 21]: 100
Plant response rating, Lambsquarters [9, 22]: 100
Plant response rating (scale 0 to 100), Johnsongrass ([10]; Postemergence, 16 g ai/ha): 0
Johnsongrass plant response rating [10, 17]: 0
Plant response rating, Johnsongrass [10, 18]: 5
Plant response rating, Johnsongrass [10, 19]: 5
Plant response rating (scale 0 to 100), Johnsongrass ([10]; Preemergence, 125 g ai/ha): 90
Plant response rating, Johnsongrass [10, 20]: 0
Plant response rating, Johnsongrass [10, 21]: 10
Plant response rating, Johnsongrass [10, 22]: 60
Plant response rating (scale 0 to 100), Crabgrass, Large ([11]; Postemergence, 16 g ai/ha): 5
Crabgrass, Large plant response rating [11, 17]: 5
Plant response rating, Crabgrass, Large [11, 18]: 5
Plant response rating, Crabgrass, Large [11, 19]: 5
Plant response rating (scale 0 to 100), Crabgrass, Large ([11]; Preemergence, 125 g ai/ha): 100
Plant response rating, Crabgrass, Large [11, 20]: 30
Plant response rating, Crabgrass, Large [11, 21]: 75
Plant response rating, Crabgrass, Large [11, 22]: 100
Plant response rating (scale 0 to 100), Galium ([12]; Postemergence, 16 g ai/ha): 65
Galium plant response rating [12, 17]: 75
Plant response rating, Galium [12, 18]: 100
Plant response rating, Galium [12, 19]: 100
Plant response rating (scale 0 to 100), Galium ([12]; Preemergence, 125 g ai/ha): 98
Plant response rating, Galium [12, 20]: 75
Plant response rating, Galium [12, 21]: 80
Plant response rating, Galium [12, 22]: 98
Plant response rating (scale 0 to 100), Soybean (soybean (Glycine max); Postemergence, 16 g ai/ha): 45
Soybean plant response rating (soybean (Glycine max); [17]): 60
Soybean plant response rating (soybean (Glycine max); [18]): 70
Plant response rating, Soybean (soybean (Glycine max); [19]): 85
Plant response rating (scale 0 to 100), Soybean (soybean (Glycine max); Preemergence, 125 g ai/ha): 80
Plant response rating, Soybean (soybean (Glycine max); [20]): 5
Plant response rating, Soybean (soybean (Glycine max); [21]): 25
Plant response rating, Soybean (soybean (Glycine max); [22]): 60
Plant response rating (scale 0 to 100), Barnyardgrass ([13]; Postemergence, 16 g ai/ha): 0
Barnyardgrass plant response rating [13, 17]: 0
Plant response rating, Barnyardgrass [13, 18]: 5
Plant response rating, Barnyardgrass [13, 19]: 5
Plant response rating (scale 0 to 100), Barnyardgrass ([13]; Preemergence, 125 g ai/ha): 80
Plant response rating, Barnyardgrass [13, 20]: 0
Plant response rating, Barnyardgrass [13, 21]: 0
Plant response rating, Barnyardgrass [13, 22]: 35
Plant response rating (scale 0 to 100), Morningglory ([14]; Postemergence, 16 g ai/ha): 40
Morningglory plant response rating [14, 17]: 55
Morningglory plant response rating [14, 18]: 90
Plant response rating, Morningglory [14, 19]: 90
Plant response rating (scale 0 to 100), Morningglory ([14]; Preemergence, 125 g ai/ha): 100
Plant response rating, Morningglory [14, 20]: 0
Plant response rating, Morningglory [14, 21]: 0
Plant response rating, Morningglory [14, 22]: 5
Plant response rating (scale 0 to 100), Waterhemp ([15]; Postemergence, 16 g ai/ha): 40
Waterhemp plant response rating [15, 17]: 75
Waterhemp plant response rating [15, 18]: 90
Plant response rating, Waterhemp [15, 19]: 98
Plant response rating (scale 0 to 100), Waterhemp ([15]; Preemergence, 125 g ai/ha): 100
Plant response rating, Waterhemp [15, 20]: 40
Plant response rating, Waterhemp [15, 21]: 95
Plant response rating, Waterhemp [15, 22]: 95
Plant response rating (scale 0 to 100), Oilseed Rape ([16]; Postemergence, 16 g ai/ha): 5
Oilseed Rape plant response rating [16, 17]: 60
Oilseed Rape plant response rating [16, 18]: 80
Plant response rating, Oilseed Rape [16, 19]: 90
Plant response rating (scale 0 to 100), Oilseed Rape ([16]; Preemergence, 125 g ai/ha): 100
Plant response rating, Oilseed Rape [16, 20]: 70
Plant response rating, Oilseed Rape [16, 21]: 95
Plant response rating, Oilseed Rape [16, 22]: 100

Reference: US10131652B2, “Pyrimidinyloxy benzene derivatives as herbicides” (E. I. DU PONT DE NEMOURS AND COMPANY, priority 2014, dated 2018)
